Assay results reported in patent US9328112B2, “Tetracyclic CDK9 kinase inhibitors” (AbbVie Inc., priority 2014, dated 2016).

What was measured:
CDK9/Cyclin T1 = CDK9/Cyclin T1 (Homo sapiens (Human), UniProt P50750); test: CDK9 enzyme assay (LANCE ULight TR-FRET kinase assay); format: biochemical; settings: 1000 μM ATP, 100 nM ULight MBP, kinase reaction 1 hour
Outline: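 TR-FRET readout (ex 320 nm; em 615/665 nm) after 1 h detection with 0.5 nM europium anti-phospho-MBP antibody in 20 mM EDTA stop buffer. Preceding 1 h kinase step: CDK9/Cyclin T1, ULight-MBP substrate at 100 nM, ATP at 1000 μM, compound pre-diluted in DMSO then buffer.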

H929 cells = test: Cell viability assay (Cell TiterGlo); format: cell-based; settings: Homo sapiens, NCI-H929, 24 hours at 37° C., Cell TiterGlo luminescence
Experimental: The cell viability assay was performed using H929 cells. Cells were seeded in 96-well plates at 10,000 cells/well and, after overnight incubation, treated with compounds in a dose response of 3-fold dilutions from 10 μM to 0.005 μM ([…], 0.1% final DMSO concentration). After 24 hours at 37° C., cell viability was measured using Cell TiterGlo reagent (Promega) with a luminescence reader.

Chain of CDK9/Cyclin T1 (P50750 whole entry): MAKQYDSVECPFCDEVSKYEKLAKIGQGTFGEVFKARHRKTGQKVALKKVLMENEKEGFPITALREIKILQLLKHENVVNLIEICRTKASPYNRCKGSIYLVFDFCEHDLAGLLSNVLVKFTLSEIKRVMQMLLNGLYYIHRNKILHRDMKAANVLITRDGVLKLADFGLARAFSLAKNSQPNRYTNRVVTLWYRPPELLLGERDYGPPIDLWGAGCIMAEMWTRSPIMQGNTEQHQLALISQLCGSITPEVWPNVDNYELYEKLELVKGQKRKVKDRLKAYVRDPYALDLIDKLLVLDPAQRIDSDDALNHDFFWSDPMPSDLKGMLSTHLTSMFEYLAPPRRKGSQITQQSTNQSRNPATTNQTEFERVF
Chain of CDK9/Cyclin T1 (O60563 whole entry partner): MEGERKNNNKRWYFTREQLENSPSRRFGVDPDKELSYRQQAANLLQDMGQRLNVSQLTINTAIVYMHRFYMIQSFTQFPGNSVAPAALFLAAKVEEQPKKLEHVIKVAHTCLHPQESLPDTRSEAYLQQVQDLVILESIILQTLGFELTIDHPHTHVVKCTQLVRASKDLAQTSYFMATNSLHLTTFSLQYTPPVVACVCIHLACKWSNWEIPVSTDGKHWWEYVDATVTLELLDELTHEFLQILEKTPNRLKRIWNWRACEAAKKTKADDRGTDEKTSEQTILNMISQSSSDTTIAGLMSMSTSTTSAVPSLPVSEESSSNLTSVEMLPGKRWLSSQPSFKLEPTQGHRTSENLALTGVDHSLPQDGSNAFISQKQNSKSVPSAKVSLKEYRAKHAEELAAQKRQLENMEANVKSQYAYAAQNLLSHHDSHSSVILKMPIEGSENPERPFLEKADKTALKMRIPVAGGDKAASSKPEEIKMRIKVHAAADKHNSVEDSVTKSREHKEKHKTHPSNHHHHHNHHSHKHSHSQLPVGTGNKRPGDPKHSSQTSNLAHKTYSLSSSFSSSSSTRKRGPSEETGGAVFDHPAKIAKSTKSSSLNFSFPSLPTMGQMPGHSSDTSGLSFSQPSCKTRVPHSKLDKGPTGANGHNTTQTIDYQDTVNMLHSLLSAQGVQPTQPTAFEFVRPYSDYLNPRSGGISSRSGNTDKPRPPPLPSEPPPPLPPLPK

IC50 (CDK9/Cyclin T1) [nM] | IC50 (H929 cells) [nM] | Compound
46 | 110 | CN1Cc2c(C3=CCCNC3)[nH]c3nccc(c23)-c2cc(F)ccc21 [Example 93, 10-fluoro-7-methyl-5-(1,2,5,6-tetrahydropyridin-3-yl)-6,7-dihydro-4H-3,4,7-triazadibenzo[cd,f]azulene]
82 | 32 | CN1Cc2c(C3=CCN([C@H]4CC[C@H](CC(=O)O)CC4)CC3)[nH]c3nccc(c23)-c2cc(F)c(F)cc21 [Example 146, {trans-4-[4-(9,10-difluoro-7-methyl-6,7-dihydro-4H-3,4,7-triazadibenzo[cd,f]azulen-5-yl)-3,6-dihydropyridin-1(2H)-yl]cyclohexyl}acetic acid]
22 | 65 | CNS(=O)(=O)CC(=O)N1CC=C(c2[nH]c3nccc4c3c2CN(C)c2ccc(F)cc2-4)CC1 [Example 25, 2-[4-(10-fluoro-7-methyl-6,7-dihydro-4H-3,4,7-triazadibenzo[cd,f]azulen-5-yl)-3,6-dihydropyridin-1(2H)-yl]-N-methyl-2-oxoethanesulfonamide]
180 | 680 | CNC(=O)N1CCC=C(c2[nH]c3nccc4c3c2CN(C)c2ccc(F)cc2-4)C1 [Example 96, 5-(10-fluoro-7-methyl-6,7-dihydro-4H-3,4,7-triazadibenzo[cd,f]azulen-5-yl)-N-methyl-3,6-dihydropyridine-1(2H)-carboxamide]

Compound | IC50 (CDK9/Cyclin T1) [nM] | IC50 (H929 cells) [nM]
CN(C)C(=O)CN1CC=C(c2[nH]c3nccc4c3c2CN(C)c2cc(F)c(F)cc2-4)CC1 [Example 132, 2-[4-(9,10-difluoro-7-methyl-6,7-dihydro-4H-3,4,7-triazadibenzo[cd,f]azulen-5-yl)-3,6-dihydropyridin-1(2H)-yl]-N,N-dimethylacetamide] | 40 | 14
